Test [1] concerns Staphylococcus aureus (S. aureus) 11540 strain. The experiment in a line: Standard microdilution MIC assay, S. aureus. The test is classed as cell-based. In a few lines:
(§1)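 MICs obtained by CLSI-standard microdilution, quality-controlled with reference strains in parallel. Values reported as + or − relative to a 16 micrograms/mL cutoff.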
A general note: In broth dilution the organism is exposed to a series of concentrations in liquid medium.

For test [2], the system named is Escherichia coli strain ATCC25922. The experiment in a line: Standard microdilution MIC assay, E. coli. Format: cell-based. In a few lines:
as §1

Molecules are shown by their SMILES.

With `CC(=N)NCC[C@@H]1CCC[C@@H](c2c(F)cc(-n3cc4cc(-c5cc(CCC[C@@H](N)C6CC6)cc(C(F)(F)F)c5)[nH]c4nc3=O)cc2F)N1` [Compound 285], the MIC in test [1] and in test [2] was at most 16 µg/mL in each case.
For `CC(C)(CN)CCc1cc(Cl)c(F)c(-c2cc3cn(-c4ccc([C@@H]5CCC[C@@H](CCNC(=N)CF)N5)cc4)c(=O)nc3[nH]2)c1` [Compound 25], the MIC in test [1] and in test [2] was at most 16 µg/mL in each case.
Turning to `CC(=N)NCC[C@@H]1CCC[C@@H](c2ccc(-n3cc4cc(-c5cc(CCC[C@@H](N)C6CC6)cc(C(F)(F)F)c5)[nH]c4nc3=O)cc2F)N1CCCF` [Compound 327], the MIC in test [1] and in test [2] was at most 16 µg/mL each time.
As for `CC(=N)NCC[C@@H]1CCC[C@@H](c2c(F)cc(-n3cc4cc(-c5cc(CCC[C@@H](N)CF)cc(Cl)c5F)[nH]c4nc3=O)cc2F)N1` [Compound 279], the MIC in test [1] and in test [2] was at most 16 µg/mL in each case.
With `COc1cc(-n2cc3cc(-c4cc(CCC[C@@H](N)C5CC5)cc(C(F)(F)F)c4)[nH]c3nc2=O)ccc1[C@@H]1CCC[C@@H](CCNC(C)=N)N1` [Compound 243], the MIC in test [1] and in test [2] was at most 16 µg/mL throughout.
In the case of `C=C[C@H](NCCCNC(C)=N)c1ccc(-n2cc3cc(-c4cc(CCCC(C)(C)N)cc(Cl)c4F)[nH]c3nc2=O)cc1` [Compound 267], the MIC in test [1] and in test [2] was at most 16 µg/mL throughout.
On to `CC(=N)NCC[C@@H]1CCC[C@@H](c2ccc(-n3cc4cc(-c5cc(CCC[C@H](C)N)cc(C(F)(F)F)c5)[nH]c4nc3=O)cc2)N1` [Compound 172], for which the MIC in test [1] and in test [2] was at most 16 µg/mL each time.
On to `COCC(=N)NCC[C@@H]1CCC[C@@H](c2ccc(-n3cc4cc(-c5cc(CCC[C@H](C)N)cc(Cl)c5F)[nH]c4nc3=O)cc2)N1` [Compound 356], for which the MIC in test [1] and in test [2] was at most 16 µg/mL in each case.
As for `C=C[C@H](NCCCNC(C)=N)c1ccc(-n2cc3cc(-c4cc(CCC[C@@H](N)C=C)cc(Cl)c4F)[nH]c3nc2=O)cc1` [Compound 265], the MIC in test [1] and in test [2] was at most 16 µg/mL each time.
Take `CC(=N)NCC[C@@H]1CCC[C@@H](c2ccc(-n3cc4cc(-c5cc(CCC[C@@H]6COCCN6)cc(Cl)c5F)[nH]c4nc3=O)cc2F)N1` [Compound 245]: the MIC in test [1] and in test [2] was at most 16 µg/mL in each case.
Regarding `CC(=N)NCC[C@@H]1CCC[C@@H](c2c(F)cc(-n3cc4cc(-c5cc(CCC[C@H](C)N)cc(Cl)c5F)[nH]c4nc3=O)cc2N2CCOCC2)N1` [Compound 282], the MIC in test [1] and in test [2] was at most 16 µg/mL throughout.
Take `C=C[C@H](N)CCCc1cc(Cl)c(F)c(-c2cc3cn(-c4ccc([C@@H]5CCC[C@@H](CCNC(=N)C(Cl)(Cl)Cl)N5)c(F)c4)c(=O)nc3[nH]2)c1` [Compound 185]: the MIC in test [1] and in test [2] was at most 16 µg/mL throughout.
Take `C[C@H](NCCCNC(=N)CF)c1ccc(-n2cc3cc(-c4cc(CCC[C@@H](N)CO)cc(Cl)c4F)[nH]c3nc2=O)cc1F` [Compound 125]: the MIC in test [1] and in test [2] was at most 16 µg/mL each time.
Turning to `CC(C)(N)CCCc1cc(Cl)c(F)c(-c2cc3cn(-c4ccc([C@@H]5CCC[C@@H](CCNC(=N)CF)N5)cc4)c(=O)nc3[nH]2)c1` [Compound 12], the MIC in test [1] and in test [2] was at most 16 µg/mL each time.
On to `CC(=N)NCC[C@@H]1CCC[C@@H](c2ccc(-n3cc4cc(-c5cc(CCC[C@@H](N)CO)cc(Cl)c5F)[nH]c4nc3=O)cc2S(C)(=O)=O)N1` [Compound 118], for which the MIC in test [1] and in test [2] was at most 16 µg/mL throughout.
With `CC(=N)NCCCN[C@@H](CO)c1ccc(-n2cc3cc(-c4cc(CCC[C@@H](N)CO)cc(Cl)c4F)[nH]c3nc2=O)cc1` [Compound 133], the MIC in test [1] and in test [2] was at most 16 µg/mL in each case.
Take `CC(=N)NCC[C@@H]1CCC[C@@H](c2ccc(-n3cc4cc(-c5cc(CCC[C@@H](N)C6CC6)cc(C(F)(F)F)c5F)[nH]c4nc3=O)cc2F)N1` [Compound 228]: the MIC in test [1] and in test [2] was at most 16 µg/mL throughout.
Regarding `COC[C@H](N)CCCc1cc(-c2cc3cn(-c4ccc(CN[C@H](CCNC(C)=N)C5CC5)cc4)c(=O)nc3[nH]2)c(F)c(C(F)(F)F)c1` [Compound 224], the MIC in test [1] and in test [2] was at most 16 µg/mL each time.
Take `COC[C@H](N)CCCc1cc(OC(F)(F)F)c(F)c(-c2cc3cn(-c4cc(F)c([C@@H]5CCC[C@@H](CCNC(C)=N)N5)c(SC)c4)c(=O)nc3[nH]2)c1` [Compound 241]: the MIC in test [1] and in test [2] was at most 16 µg/mL in each case.
On to `C=C[C@@H](CCNC(C)=N)NCc1ccc(-n2cc3cc(-c4cc(CCC(F)(F)CN)cc(Cl)c4F)[nH]c3nc2=O)cc1` [Compound 105], for which the MIC in test [1] and in test [2] was at most 16 µg/mL throughout.
In the case of `COC[C@H](N)CCCc1cc(-c2cc3cn(-c4ccc(CN[C@H](CCNC(C)=N)C5CC5)cc4)c(=O)nc3[nH]2)cc(C(F)(F)F)c1` [Compound 222], the MIC in test [1] and in test [2] was at most 16 µg/mL in each case.
Take `CC(=N)NCC[C@@H]1CCC[C@@H](c2ccc(-n3cc4cc(-c5cc(CCC[C@@H](N)C6CC6)cc(Cl)c5F)[nH]c4nc3=O)cc2)N1CCCF` [Compound 334]: the MIC in test [1] and in test [2] was at most 16 µg/mL each time.
Regarding `C=C[C@H](N)CCCc1cc(Cl)c(F)c(-c2cc3cn(-c4cc(F)c([C@@H]5CCC[C@@H](CCNC(C)=N)N5)c(F)c4)c(=O)nc3[nH]2)c1` [Compound 246], the MIC in test [1] and in test [2] was at most 16 µg/mL throughout.
For `CC(=N)NCC[C@@H]1CCC[C@@H](c2ccc(-n3cc4cc(-c5cc(CCC[C@@H](N)CC(N)=O)cc(Cl)c5F)[nH]c4nc3=O)cc2)N1` [Compound 156], the MIC in test [1] and in test [2] was at most 16 µg/mL each time.
Regarding `CSc1cc(-n2cc3cc(-c4cc(CCC[C@@H](N)CF)cc(C(F)(F)F)c4)[nH]c3nc2=O)ccc1[C@@H]1CCC[C@@H](CCNC(C)=N)N1` [Compound 203], the MIC in test [1] and in test [2] was at most 16 µg/mL throughout.
For `C=C[C@@H](N)CCCc1cc(Cl)c(F)c(-c2cc3cn(-c4ccc([C@@H]5COC[C@@H](CCNC(C)=N)N5)cc4)c(=O)nc3[nH]2)c1` [Compound 56], the MIC in test [1] and in test [2] was at most 16 µg/mL throughout.
For `CSc1cc(-n2cc3cc(-c4cc(CCC[C@H](C)N)cc(Cl)c4F)[nH]c3nc2=O)ccc1[C@@H]1CCC[C@@H](CCNC(C)=N)N1` [Compound 115], the MIC in test [1] and in test [2] was at most 16 µg/mL each time.
For `CSCC(=N)NCC[C@@H]1CCC[C@@H](c2ccc(-n3cc4cc(-c5cc(CCC[C@H](C)N)cc(Cl)c5F)[nH]c4nc3=O)cc2)N1` [Compound 42], the MIC in test [1] and in test [2] was at most 16 µg/mL in each case.
Regarding `C=C[C@@H](CCNC(=N)CF)NCc1ccc(-n2cc3cc(-c4cc(CCC[C@@H](N)C5CC5)cc(Cl)c4F)[nH]c3nc2=O)cc1` [Compound 89], the MIC in test [1] and in test [2] was at most 16 µg/mL each time.
`CC(=N)NCC[C@H](CO)NCc1ccc(-n2cc3cc(-c4cc(CCCC(C)(C)N)cc(Cl)c4F)[nH]c3nc2=O)cc1` [Compound 40]: the minimal inhibitory concentration (MIC) in test [1] and in test [2] was at most 16 µg/mL throughout.
Consider `CC(=N)N[C@@H](C)C[C@@H]1CCC[C@@H](c2ccc(-n3cc4cc(-c5cc(CCC[C@H](C)N)cc(Cl)c5F)[nH]c4nc3=O)cc2)N1` [Compound 253], for which the MIC in test [1] and in test [2] was at most 16 µg/mL each time.
Consider `CC(=N)NCC[C@H](CO)NCc1ccc(-n2cc3cc(-c4cc(CCCC5(N)CC5)cc(Cl)c4F)[nH]c3nc2=O)cc1` [Compound 153], for which the MIC in test [1] and in test [2] was at most 16 µg/mL throughout.
For `COC[C@H](N)CCCc1cc(OC(F)(F)F)c(F)c(-c2cc3cn(-c4ccc([C@@H]5CCC[C@@H](CCNC(C)=N)N5)c(C)c4)c(=O)nc3[nH]2)c1` [Compound 238], the MIC in test [1] and in test [2] was at most 16 µg/mL in each case.
In the case of `C=CC(CCNC(C)=N)NCc1ccc(-n2cc3cc(-c4cc(CCC[C@@H](N)C(F)(F)F)cc(Cl)c4F)[nH]c3nc2=O)cc1` (some centres unmarked) [Compound 11], the MIC (as a rule, the least concentration at which growth counts as inhibited) is at most 16 µg/mL in test [1] and over 16 µg/mL in test [2].
`CC(=N)NCC[C@@H]1CCC[C@@H](c2ccc(-n3cc4cc(-c5cc(CCC[C@@H](N)CC#N)cc(Cl)c5F)[nH]c4nc3=O)cc2)N1` [Compound 154]: the MIC in test [1] and in test [2] was at most 16 µg/mL each time.
With `COc1cc(-n2cc3cc(-c4cc(CCC[C@@H](N)CO)cc(C(F)(F)F)c4F)[nH]c3nc2=O)cc(F)c1[C@@H]1CCC[C@@H](CCNC(C)=N)N1` [Compound 323], the MIC in test [1] and in test [2] was at most 16 µg/mL throughout.
Regarding `CC(=N)NCCCN[C@H](c1ccc(-n2cc3cc(-c4cc(CCC[C@H](C)N)cc(Cl)c4F)[nH]c3nc2=O)cc1)C(F)F` [Compound 159], the MIC in test [1] and in test [2] was at most 16 µg/mL throughout.
As to `N=C(CF)NCC[C@@H]1CCC[C@@H](c2ccc(-n3cc4cc(-c5cc(CCC[C@@H](N)C6CC6)cc(Cl)c5F)[nH]c4nc3=O)cc2)N1` [Compound 86], the MIC in test [1] and in test [2] was at most 16 µg/mL each time.
Turning to `C[C@H](N)CCCc1cc(Cl)c(F)c(-c2cc3cn(-c4ccc([C@H]5CNC[C@@H](CCNC(=N)CF)N5)cc4)c(=O)nc3[nH]2)c1` [Compound 46], the MIC in test [1] and in test [2] was at most 16 µg/mL in each case.
`CC(=N)NCCCN[C@@H](C)c1ccc(-n2cc3cc(-c4cc(CCC[C@@H](N)C(F)(F)F)cc(Cl)c4F)[nH]c3nc2=O)cc1` [Compound 102]: the MIC in test [1] and in test [2] was at most 16 µg/mL throughout.
On to `COC[C@H](N)CCCc1cc(Cl)c(F)c(-c2cc3cn(-c4ccc([C@@H]5CCC[C@@H](CCNC(C)=N)N5)nc4)c(=O)nc3[nH]2)c1` [Compound 358], for which the MIC in test [1] and in test [2] was at most 16 µg/mL throughout.
For `C=CC(CCNC(C)=N)NCc1ccc(-n2cc3cc(-c4cc(CCCC(C)(C)N)cc(Cl)c4F)[nH]c3nc2=O)cc1` (centres unmarked) [Compound 6], the MIC in test [1] and in test [2] was at most 16 µg/mL each time.
In the case of `C=C[C@@H](N)CCCc1cc(Cl)c(F)c(-c2cc3cn(-c4ccc(CNCCCNC(C)=N)c(F)c4)c(=O)nc3[nH]2)c1` [Compound 70], the MIC in test [1] and in test [2] was at most 16 µg/mL in each case.

Values taken from patent publication US11999739B2, “Antimicrobials methods of making and using the same” (BIOVERSYS AG, priority 2016, dated 2024).
